Experiment: Sialic acid in murine fecal samples (LC-MS/MS)
Format: in vivo
Settings: Swiss Webster, mouse, faeces; oral gavage, gnotobiotic mice monocolonized with B. thetaiotaomicron BT0455
Description: Groups of 6 germ-free Swiss Webster mice were orally gavaged with 1×10^9 CFU of the desired B. thetaiotaomicron strain. Fecal samples (˜100-200 mg) were collected daily for 12 days. aTC (100 μg/mL) was administered in drinking water for 12 hours after fecal collection on day 1. Fecal samples were homogenized in 1 mL of 1× tris-buffered saline (TBS) with a single 5 mm stainless steel bead using a bead beater (BioSpec Products) at 26° C. for 1 minute on the high setting, followed by vortexing at top speed for 8 minutes. Samples were then centrifuged at 500×g for 1 minute to pellet fibrous and insoluble matter. […]
For sialic acid measurements, 5 μL of internal standard solution (50 μM 1,2,3-^13C3 sialic acid in H2O) were added to each sample (20 μL) and proteins were precipitated through addition of 100 μL organic solvents at −20° C. […] The MassHunter Quantitative Analysis Software (Agilent, version 7.0) was used for peak integration with the most abundant ion fragment as quantifier and the others as qualifiers of the peak. Quantification was based on calibration curves using commercially available sialic acid and the signal intensity of the internal standard spiked into each sample.

CC(=O)N[C@H]1[C@H]([C@H](O)[C@H](O)CO)OC(O)(C(=O)O)C[C@@H]1O (stereo partly shown) [sialic acid, N-acetylneuraminic acid]
half-life: ~9 h

— patent publication US11549115B2, “Compositions and methods for regulated gene expression” (YALE UNIVERSITY, priority 2017, dated 2023)
